Measurements reported in the supplement of paper PMC10307832.

How the values were obtained:
Assay in all cases: relative viability (nuclei count vs DMSO), 5 days (fraction); higher = more cells survive
[1] = compound: C=CCn1c(=O)c2cnc(Nc3ccc(N4CCN(C)CC4)cc3)nc2n1-c1cccc(C(C)(C)O)n1 [Adavosertib] + Nc1nc2[nH]cc(CCc3ccc(C(=O)N[C@@H](CCC(=O)O)C(=O)O)cc3)c2c(=O)[nH]1 [Pemetrexed] (partner 0.2 µM)
How it was run: (§1)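 Lung cancer cell lines in 1536-well plates were dosed by pin tool the day after seeding, either with one drug alone or with a fixed anchor-drug dose plus five library-drug doses (not always all listed) in √10 steps. After 5 days, cells were fixed and their nuclei stained in one step (final 0.05% Triton X-100, 1% formaldehyde, 1 ug/ml Hoechst), then counted on 4× images. Relative viability is the nuclei count in treated wells divided by that in vehicle wells. Values are medians of duplicate plates.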

[2] = compound: COc1nc(N)nc2c1ncn2[C@@H]1O[C@H](CO)[C@@H](O)[C@@H]1O [Nelarabine] + Nc1nc2[nH]cc(CCc3ccc(C(=O)N[C@@H](CCC(=O)O)C(=O)O)cc3)c2c(=O)[nH]1 [Pemetrexed] (partner 0.2 µM)
How it was run: as §1

[3] = compound: COc1nc(N)nc2c1ncn2[C@@H]1O[C@H](CO)[C@@H](O)[C@@H]1O [Nelarabine] + Cc1nc(Nc2ncc(C(=O)Nc3c(C)cccc3Cl)s2)cc(N2CCN(CCO)CC2)n1 [Dasatinib] (partner 0.075 µM)
How it was run: as §1

[4] = compound: C=CCn1c(=O)c2cnc(Nc3ccc(N4CCN(C)CC4)cc3)nc2n1-c1cccc(C(C)(C)O)n1 [Adavosertib] + CC(=O)c1c(C)c2cnc(Nc3ccc(N4CCNCC4)cn3)nc2n(C2CCCC2)c1=O [Palbociclib] (partner 0.5 µM)
How it was run: as §1

Cell Line: EMC-BAC-2
- relative viability ([1]; first compound 0.03162 µM): 0.399
- relative viability ([1]; first compound 0.1 µM): 0.357
- relative viability ([1]; first compound 0.3162 µM): 0.334
- relative viability ([2]; first compound 0.01 µM): 0.44
- relative viability ([2]; first compound 0.03162 µM): 0.456
- relative viability ([2]; first compound 0.1 µM): 0.502
- relative viability ([2]; first compound 0.3162 µM): 0.52
- relative viability ([2]; first compound 1 µM): 0.508
- relative viability ([3]; first compound 0.01 µM): 0.409
- relative viability ([3]; first compound 0.03162 µM): 0.348
- relative viability ([3]; first compound 0.1 µM): 0.304
- relative viability ([3]; first compound 0.3162 µM): 0.374
- relative viability ([3]; first compound 1 µM): 0.356
- relative viability ([4]; first compound 0.03162 µM): 0.542
- relative viability ([4]; first compound 0.1 µM): 0.516
- relative viability ([4]; first compound 0.3162 µM): 0.487
